≈ marks a conversion by molar mass, not a printed value. Calls of active or inactive are those of the source. The calls are words filed in the database; no cut-off is given here.
Key:
Aspergillus flavus [1] = test: Antifungal activity against Aspergillus flavus; type: functional
Fusarium solani [2] = test: Antifungal activity against Fusarium solani; type: functional
Aspergillus niger [3] = test: Antifungal activity against Aspergillus niger; type: functional
Candida albicans = test: Antifungal activity against Candida albicans; type: functional
THP-1 [4] = test: Anti-inflammatory activity in Homo sapiens (human) THP1 cells assessed as inhibition of LPS-induced IL6 production at 10 uM incubated for 30 min prior to LPS-challenge measured after 24 hr by ELISA; type: functional
THP-1 [5] = test: Anti-inflammatory activity in Homo sapiens (human) THP1 cells assessed as inhibition of LPS-induced TNFalpha production at 10 uM incubated for 30 min prior to LPS-challenge measured after 24 hr by ELISA; type: functional
Salmonella typhimurium [6] = test: Antibacterial activity against Salmonella enterica subsp. enterica serovar Typhimurium; type: functional
Escherichia coli [7] = test: Antibacterial activity against Escherichia coli; type: functional
Bacillus subtilis [8] = test: Antibacterial activity against Bacillus subtilis; type: functional
Staphylococcus aureus [9] = test: Antibacterial activity against Staphylococcus aureus; type: functional
Bacillus subtilis [10] = test: Antibacterial activity against Bacillus subtilis up to 200 ug/ml; type: functional, organism-based
Staphylococcus aureus [11] = test: Antibacterial activity against Staphylococcus aureus up to 200 ug/ml; type: functional, organism-based
Aspergillus flavus [12] = test: Antifungal activity against Aspergillus flavus up to 200 ug/ml; type: functional, organism-based
Fusarium solani [13] = test: Antifungal activity against Fusarium solani up to 200 ug/ml; type: functional, organism-based
Aspergillus niger [14] = test: Antifungal activity against Aspergillus niger up to 200 ug/ml; type: functional, organism-based
Escherichia coli [15] = test: Ratio of ciprofloxacin MIC to compound MIC for Escherichia coli; type: functional
Staphylococcus aureus [16] = test: Ratio of ciprofloxacin MIC to compound MIC for Staphylococcus aureus; type: functional
Bacillus subtilis [17] = test: Ratio of ciprofloxacin MIC to compound MIC for Bacillus subtilis; type: functional
Salmonella typhimurium [18] = test: Ratio of ciprofloxacin MIC to compound MIC for Salmonella enterica subsp. enterica serovar Typhimurium; type: functional

MIC (Aspergillus flavus [1]) [mg/L]	MIC (Fusarium solani [2]) [mg/L]	MIC (Aspergillus niger [3]) [mg/L]	MIC (Candida albicans) [mg/L]	MIC (Salmonella typhimurium [6]) [mg/L]	MIC (Escherichia coli [7]) [mg/L]	MIC (Bacillus subtilis [8]) [mg/L]	MIC (Staphylococcus aureus [9]) [mg/L]	SMILES	inhibition at 10 µM (THP-1 [4]) [%]	inhibition at 10 µM (THP-1 [5]) [%]	Activity (Bacillus subtilis [10])	Activity (Staphylococcus aureus [11])	Activity (Aspergillus flavus [12])	Activity (Fusarium solani [13])	Activity (Aspergillus niger [14])	Ratio (Escherichia coli [15])	Ratio (Staphylococcus aureus [16])	Ratio (Bacillus subtilis [17])	Ratio (Salmonella typhimurium [18])
80 (≈ 141 µM)	60 (≈ 106 µM)	85 (≈ 150 µM)	50 (≈ 88.3 µM)	60 (≈ 106 µM)	45 (≈ 79.5 µM)	70 (≈ 124 µM)	55 (≈ 97.2 µM)	CCOC(=O)C1=C(C)NC(C)=C(C(=O)OCC)C1c1ccc(NC(=O)Nc2ccc(Cl)cc2C(F)(F)F)cc1	91	83									
		90 (≈ 180 µM)	85 (≈ 170 µM)	90 (≈ 180 µM)	70 (≈ 140 µM)			CCOC(=O)C1=C(C)NC(C)=C(C(=O)OCC)C1c1ccc(NC(=O)Nc2cc(F)ccc2F)cc1	96	78	inactive	inactive	inactive	inactive					
90 (≈ 261 µM)	90 (≈ 261 µM)		90 (≈ 261 µM)	45 (≈ 131 µM)	40 (≈ 116 µM)	85 (≈ 247 µM)	60 (≈ 174 µM)	CCOC(=O)C1=C(C)NC(C)=C(C(=O)OCC)C1c1ccc(N)cc1	0	0					inactive				
85 (≈ 177 µM)	85 (≈ 177 µM)	45 (≈ 93.5 µM)	65 (≈ 135 µM)	65 (≈ 135 µM)	65 (≈ 135 µM)	80 (≈ 166 µM)	40 (≈ 83.1 µM)	CCOC(=O)C1=C(C)NC(C)=C(C(=O)OCC)C1c1ccc(NC(=O)Nc2ccc(F)cc2)cc1	68	42									
20 (≈ 37.6 µM)	25 (≈ 47 µM)	10 (≈ 18.8 µM)	15 (≈ 28.2 µM)	20 (≈ 37.6 µM)	10 (≈ 18.8 µM)	35 (≈ 65.7 µM)	20 (≈ 37.6 µM)	CCOC(=O)C1=C(C)NC(C)=C(C(=O)OCC)C1c1ccc(NC(=O)Nc2ccc(Cl)cc2Cl)cc1	24	11									
20 (≈ 40.2 µM)	20 (≈ 40.2 µM)	20 (≈ 40.2 µM)	30 (≈ 60.2 µM)	35 (≈ 70.3 µM)	20 (≈ 40.2 µM)	80 (≈ 161 µM)	65 (≈ 131 µM)	CCOC(=O)C1=C(C)NC(C)=C(C(=O)OCC)C1c1ccc(NC(=O)Nc2ccc(Cl)cc2)cc1	18	0									
35 (≈ 70.1 µM)	20 (≈ 40 µM)	20 (≈ 40 µM)	35 (≈ 70.1 µM)	25 (≈ 50 µM)	25 (≈ 50 µM)	50 (≈ 100 µM)	45 (≈ 90.1 µM)	CCOC(=O)C1=C(C)NC(C)=C(C(=O)OCC)C1c1ccc(NC(=O)Nc2ccc(F)cc2F)cc1	54	28						2	2	2	2

SMILES	MIC (Aspergillus flavus [1]) [mg/L]	MIC (Fusarium solani [2]) [mg/L]	MIC (Aspergillus niger [3]) [mg/L]	MIC (Candida albicans) [mg/L]	MIC (Salmonella typhimurium [6]) [mg/L]	MIC (Escherichia coli [7]) [mg/L]	MIC (Bacillus subtilis [8]) [mg/L]	MIC (Staphylococcus aureus [9]) [mg/L]	inhibition at 10 µM (THP-1 [4]) [%]	inhibition at 10 µM (THP-1 [5]) [%]	Activity (Bacillus subtilis [10])	Activity (Staphylococcus aureus [11])	Activity (Aspergillus flavus [12])	Activity (Fusarium solani [13])	Activity (Aspergillus niger [14])	Ratio (Escherichia coli [15])	Ratio (Staphylococcus aureus [16])	Ratio (Bacillus subtilis [17])	Ratio (Salmonella typhimurium [18])
Clc1ccc(COC(Cn2ccnc2)c2ccc(Cl)cc2Cl)c(Cl)c1 (stereo not drawn) [MICONAZOLE]	20 (≈ 48.1 µM)	15 (≈ 36 µM)	20 (≈ 48.1 µM)	25 (≈ 60.1 µM)															

Source: ChEMBL document CHEMBL3044536, “The synthesis, anti-inflammatory, and anti-microbial activity evaluation of new series of 4-(3-arylureido)phenyl-1,4-dihydropyridine urea derivatives” (2013)
